Source: article PMC7139375 (2020)

Assays:
[1] = system: DDT_13 (DNA, aptamer) TCCAGCACTCCACGCATAACGAATTGTGCTCAATGCGCCCCTGCAGTGAATGTGGAATTTGTTATGCGTGCGACGGTGAA; test: AuNPs colorimetric assay; settings: room temperature
[2] = system: DDT_13 (DNA, aptamer) TCCAGCACTCCACGCATAACGAATTGTGCTCAATGCGCCCCTGCAGTGAATGTGGAATTTGTTATGCGTGCGACGGTGAA; test: SYBR Green I fluorescence assay; settings: 137 mM NaCl, 2.5 mM KCl, 0.5 mM MgCl2, 1 mM CaCl2; phosphate binding buffer pH 7.2, room temperature; interferent prepared at 5 μM

SMILES	binding ([1]; interferent prepared at 16 μM)	binding [2]	binding ([1]; interferent prepared at 7.4 μM)
O=C(O)CNCP(=O)(O)O	no	no	–
O=C(O)C(F)(F)C(F)(F)C(F)(F)C(F)(F)C(F)(F)C(F)(F)C(F)(F)F	no	–	–
O=C(O)C(c1ccc(Cl)cc1)c1ccc(Cl)cc1	no	no	–

Second part, the compound after the results:

binding ([1]; interferent prepared at 16 μM)	binding [2]	binding ([1]; interferent prepared at 7.4 μM)	SMILES
no	–	–	CCOC(=O)C(C)=O
–	–	no	CC(C)(c1cc(Br)c(O)c(Br)c1)c1cc(Br)c(O)c(Br)c1
